# Source: patent US20250332178A1, “METHODS OF TREATING MYCOBACTERIAL INFECTIONS USING TETRACYCLINE COMPOUNDS” (priority 2018, published 2025)
# Read-outs that look alike come from different tables or passages of the source.
# Tests used:
# M. arupense = assay: MIC (CLSI broth dilution), slow-growing NTM isolates; format: cell-based; conditions: isolate 11, Other
# M. simiae = assay: as above; format: cell-based
# M. abscessus = conditions: strains of M. abscessus; Wallace et al.; cited from earlier work
# [1] = MIC by broth microdilution in CAMHB, clinical isolates; format: cell-based, Mycobacterium chelonae; conditions: for MIC: read-out: MIC
# [2] = tested on: M. abscessus subsp. abscessus CIP 104536; assay: Time-kill kinetics assay; format: cell-based
# Description: Briefly, M. abscessus cultures were exposed to antimicrobial drugs at 4-fold increasing concentrations for 7 days at 37° C. under shaking conditions at 96 rpm. […] The drug concentrations ranged from 0.063 to 256 mg/L for both compounds. […] At day 1, 3 and 7 during drug exposure, samples were collected, centrifuged at 14000 xg to avoid anti-NTM drug carry over, serially diluted (10-fold, 10^0-10^7) and subcultured onto solid medium. […] The lower limit of detection was 5 cfu/mL (log 0.7). All experiments were performed in duplicate. Time-kill curves, as well as concentration-effect curves were generated.
# [3] = tested on: Bacille Calmette Guerin (BCG); format: cell-based, Mycobacterium bovis
# [4] = Intra-pulmonary steady-state concentrations (plasma, ELF, alveolar cells) after multiple IV doses in healthy adult subjects; format: in vivo, human; conditions: human, in vivo
# Description: The remaining 20 subjects received tigecycline as 1 intravenous dose of 100 mg administered as a 30 minute infusion at t=0, followed by 6 intravenous doses of 50 mg administered as 30 minute infusions at t=12, 24, 36, 48, 60, and 72 hours. A study completion visit was conducted on the day following the final test article dose. There was a final follow-up assessment 7 to 14 days following the subject's last dose of test article which may be completed by telephone contact or other interactive technology unless an examination was needed to evaluate adverse events or abnormalities noted at the study completion visit.
# Plasma PK samples were collected pre-dose and at 0.5, 1, 1.5, 2, 3, 4, 6, 8, 12 and 24 hours post-dose on day 4. […] One BAL sample was collected from each subject on day 4. Subjects were randomized to one of the following collection times: 0.5, 1, 2, 4, 8, 12 or 24 hours post-dose.
# [5] = tested on: slow-growing NTM isolates; assay: MIC (CLSI broth dilution), all slow-growing NTM isolates; format: cell-based, nontuberculous mycobacteria
# [6] = in vivo; cited from earlier work
# [7] = tested on: M. abscessus subsp. abscessus CIP 104536; assay: MIC according to CLSI guidelines; conditions: Mycobacteroides abscessus, CIP104536, read-out: Minimal Inhibitory Concentration (MIC)
# Description: Vials with M. abscessus suspensions were stored at −80° C. Cultures on solid medium were grown on Mueller Hinton II agar (BD), supplemented with 10% OADC and 0.5% glycerol for 10 days at 37° C. with 5% CO2.
# M. chimaera = assay: MIC (CLSI broth dilution), slow-growing NTM isolates; format: cell-based
# M. intracellulare = assay: as above; format: cell-based
# [8] = Alveolar Macrophages (AM) concentration (mean ± SD)
# [9] = Epithelial lining fluid (ELF) concentration (mean ± SD)
# [10] = Plasma concentration (mean ± SD)
# [11] = Ratio of Omadacycline Concentrations in Alveolar Cells to Plasma (Mean, SD)
# [12] = Ratio of Omadacycline Concentrations in Epithelial Lining Fluid to Plasma (Mean, SD)
structure (smiles),measurement,setting,value
"C[C@H]1c2cccc(O)c2C(=O)C2=C(O)[C@]3(O)C(=O)C(C(N)=O)=C(O)[C@@H](N(C)C)[C@@H]3[C@@H](O)[C@@H]21 [Doxycycline, doxycycline]",MIC,M. arupense,16 µg/mL
same,MIC,"M. simiae; isolate 13, Other",>16 µg/mL
same,MIC,"M. simiae; isolate 14, Other",>16 µg/mL
same,MIC,"M. simiae; isolate 15, Other",>16 µg/mL
same,in vitro activity (in words),M. abscessus,very low activity
"CN(C)c1cc(CNCC(C)(C)C)c(O)c2c1C[C@H]1C[C@H]3C(N(C)C)C(O)=C(C(N)=O)C(=O)[C@@]3(O)C(O)=C1C2=O (stereo partly drawn) [Omadacycline, (4aS,5aR,12aS)-4,7-bis(dimethylamino)-3,10,12,12a-tetrahydroxy-9-((neopentylamino)methyl)-1,11-dioxo-1,4,4a,5,5a,6,11,12a-octahydrotetracene-2-carboxamide]",MIC90,"[1]; 22 clinical isolates, read-out: MIC90",0.25 µg/mL
same,MIC,"[1]; isolate No. 1, MC 7323",0.125 µg/mL
same,MIC,"[1]; isolate No. 2, MC 7534",0.03 µg/mL
same,MIC,"[1]; isolate No. 3, MC 7368",0.03 µg/mL
same,MIC,"[1]; isolate No. 4, MC 7514",0.06 µg/mL
same,MIC,"[1]; isolate No. 5, MC 7584",0.06 µg/mL
same,MIC,"[1]; isolate No. 6, MC 7192",0.015 µg/mL
same,MIC,"[1]; isolate No. 7, MC 7466",0.03 µg/mL
same,MIC,"[1]; isolate No. 8, MC 7533",0.25 µg/mL
same,MIC,"[1]; isolate No. 9, MC 7579",0.125 µg/mL
same,MIC,"[1]; isolate No. 10, MC 7614",0.125 µg/mL
same,MIC,"[1]; isolate No. 11, MC 7414",0.125 µg/mL
same,MIC,"[1]; isolate No. 12, MC 7313",0.125 µg/mL
same,MIC,"[1]; isolate No. 13, MC 7281",0.25 µg/mL
same,MIC,"[1]; isolate No. 14, MC 7328",0.015 µg/mL
same,MIC,"[1]; isolate No. 15, MC 7294",0.25 µg/mL
same,MIC,"[1]; isolate No. 16, MC 14-S-03",0.06 µg/mL
same,MIC,"[1]; isolate No. 17, MC 14-S-04",0.06 µg/mL
same,MIC,"[1]; isolate No. 18, MC 14-S-05",0.125 µg/mL
same,MIC,"[1]; isolate No. 19, MC 14-S-06",0.03 µg/mL
same,MIC,"[1]; isolate No. 20, MC 14-S-07",0.06 µg/mL
same,MIC,"[1]; isolate No. 21, MC 35757",0.125 µg/mL
same,MIC,"[1]; isolate No. 22, MC 7302",0.25 µg/mL
same,concentration for 1 log mycobacterial killing,[2]; after 7 days of exposure,4.0 mg/L
same,concentration for 2 log mycobacterial killing,[2]; after 7 days of exposure,4.8 mg/L
same,concentration for stasis (concentration-effect curve),[2]; after 7 days of exposure,3.3 mg/L
same,concentrations achieving elimination,"[2]; time-kill, at day 3-7",no elimination was achieved
same,concentration showing inhibition of mycobacterial growth,"[2]; time-kill, up to 7 days exposure",4 mg/L
same,Results/Observations (growth),[3]; disk: 15 μg of omadacycline,Markedly decreased growth around
same,"Free-drug AUC72-96, Plasma (Median)",[4],9610 ng·h/mL
same,AUC,"[4]; AUCmean, Alveolar Cells (AC)",302000 ng·h/mL
same,AUC,"[4]; AUCmean, Epithelial Lining Fluid (ELF)",17200 ng·h/mL
same,AUC,"[4]; AUCmean, Plasma",11700 ng·h/mL
same,AUC,"[4]; AUCmedian, Alveolar Cells (AC)",292000 ng·h/mL
same,AUC,"[4]; AUCmedian, Epithelial Lining Fluid (ELF)",16700 ng·h/mL
same,AUC,"[4]; AUCmedian, Plasma",11800 ng·h/mL
same,concentration at 0.5 h,[4]; [8],14300 ± 9300 ng/mL
same,concentration at 1 h,[4]; [8],12800 ± 8480 ng/mL
same,concentration at 2 h,[4]; [8],10800 ± 7590 ng/mL
same,concentration at 4 h,[4]; [8],18000 ± 7170 ng/mL
same,concentration at 8 h,[4]; [8],12300 ± 4700 ng/mL
same,concentration at 12 h,[4]; [8],12300 ± 4610 ng/mL
same,concentration at 24 h,[4]; [8],10400 ± 4040 ng/mL
same,concentration at 0.5 h,[4]; [9],1730 ± 1010 ng/mL
same,concentration at 1 h,[4]; [9],2250 ± 720 ng/mL
same,concentration at 2 h,[4]; [9],1510 ± 940 ng/mL
same,concentration at 4 h,[4]; [9],950 ± 330 ng/mL
same,concentration at 8 h,[4]; [9],580 ± 190 ng/mL
same,concentration at 12 h,[4]; [9],610 ± 290 ng/mL
same,concentration at 24 h,[4]; [9],410 ± 130 ng/mL
same,Kp,[4]; Penetration Ratio: total-drug ELF AUC72-96 to free-drug plasma AUC72-96 (Median),1.93
same,Kp,[4]; Penetration ratio AC:Plasma based on AUCmean,25.8
same,Kp,[4]; Penetration ratio AC:Plasma based on AUCmedian,24.8
same,Kp,[4]; Penetration ratio ELF:Plasma based on AUCmean,1.47
same,Kp,[4]; Penetration ratio ELF:Plasma based on AUCmedian,1.42
same,concentration at 0.5 h,[4]; [10],1800 ng/mL
same,concentration at 1 h,[4]; [10],890 ng/mL
same,concentration at 2 h,[4]; [10],930 ng/mL
same,concentration at 4 h,[4]; [10],590 ng/mL
same,concentration at 8 h,[4]; [10],560 ng/mL
same,concentration at 12 h,[4]; [10],420 ng/mL
same,concentration at 24 h,[4]; [10],270 ng/mL
same,Kp at 0.5 h,[4]; [11],8.12 ± 5.95
same,Kp at 1 h,[4]; [11],13.8 ± 7.38
same,Kp at 2 h,[4]; [11],12.3 ± 6.57
same,Kp at 4 h,[4]; [11],34.7 ± 15.1
same,Kp at 8 h,[4]; [11],23.1 ± 11.2
same,Kp at 12 h,[4]; [11],29 ± 8.78
same,Kp at 24 h,[4]; [11],40.3 ± 10.3
same,Kp at 0.5 h,[4]; [12],0.95 ± 0.56
same,Kp at 1 h,[4]; [12],2.72 ± 1.26
same,Kp at 2 h,[4]; [12],1.5 ± 0.61
same,Kp at 4 h,[4]; [12],1.79 ± 0.49
same,Kp at 8 h,[4]; [12],1.07 ± 0.45
same,Kp at 12 h,[4]; [12],1.44 ± 0.57
same,Kp at 24 h,[4]; [12],1.65 ± 0.86
same,AUC,"[4]; Total-drug AUC72-96, ELF (Median)",18500 ng·h/mL
same,Kp,[4]; concentration in epithelial lining fluid relative to plasma,> 1.4
same,Cmax,"[4]; iv, 100 mg",2260 ± 760 ng/mL
same,Vd,"[4]; iv, 100 mg",165 ± 58 L
same,Kp,[4]; mean concentration in alveolar cells relative to plasma,~25
same,Kp,[4]; mean concentration in epithelial lining fluid higher than in plasma,≥ 0.4
same,activity against SGM isolates (in words),[5]; small number of SGM isolates,MIC values above the highest concentration evaluated
same,24-hour area under the curve compared to tigecycline,[6],approximately three-fold higher
same,MIC,[7],4 µg/mL
"NCC[C@H](O)C(=O)N[C@@H]1C[C@H](N)[C@@H](O[C@H]2O[C@H](CN)[C@@H](O)[C@H](O)[C@H]2O)[C@H](O)[C@H]1O[C@H]1O[C@H](CO)[C@@H](O)[C@H](N)[C@H]1O [Amikacin, amikacin]",MIC50,[5]; all slow-growing NTM isolates,16 µg/mL
same,MIC90,[5]; all slow-growing NTM isolates,32 µg/mL
same,MIC,"M. chimaera; isolate 4, MAC",8 µg/mL
same,MIC,"M. chimaera; isolate 5, MAC",8 µg/mL
same,MIC,"M. intracellulare; isolate 6, MAC",8 µg/mL
same,MIC,"M. intracellulare; isolate 7, MAC",8 µg/mL
same,MIC,"M. intracellulare; isolate 8, MAC",16 µg/mL
same,MIC,"M. intracellulare; isolate 9, MAC",16 µg/mL
same,MIC,"M. intracellulare; isolate 10, MAC",16 µg/mL
same,MIC,M. arupense,8 µg/mL
same,MIC,"M. simiae; isolate 13, Other",32 µg/mL
same,MIC,"M. simiae; isolate 14, Other",16 µg/mL
same,MIC,"M. simiae; isolate 15, Other",16 µg/mL
CC[C@H]1OC(=O)[C@H](C)[C@@H](O[C@H]2C[C@@](C)(OC)[C@@H](O)[C@H](C)O2)[C@H](C)[C@@H](O[C@@H]2O[C@H](C)C[C@H](N(C)C)[C@H]2O)[C@](C)(OC)C[C@@H](C)C(=O)[C@H](C)[C@@H](O)[C@]1(C)O [clarithromycin],clear zone,[3]; disk: 15 μg of clarithromycin,45 mm clear zone
